Key:
[1] = system: RBL-2H3 cells; assay: Maximum tolerated concentration (cytotoxicity by lactate dehydrogenase release); type: cell-based, rat
Source text: A commercially available cytotoxicity test was used (Promega Cytotox-One cat. #67891).
The safety index (SI) of a test compound Is the ratio between the maximum tolerated concentration and the 1C50 and is used as a measure of the relative safety of the test compound.

[2] = system: phospho-Akt Ser473; assay: Inhibition of Akt phosphorylation on Ser473 in IgE sensitized, antigen stimulated RBL-2H3 cells; type: cell-based, rat; details: normalized to total Akt, IgE and antigen for 15 min
Source text: The mast cell degranulation assay using the RBL-2H3 cell line (see Example 27) was also used to determine the status of the PI3K/Akt axis. Activation of PI3K leads to production of PIP3 on the cytosolic side of the lipid bilayer. Akt is recruited to the PIP3 domain and subsequently activated by phosphorylation on residues Ser473 and Thr308. (Franke et al., Cell 81:727-736, (1995)). Once recruited to the membrane, it is phosphorylated and activated by other kinases (Hemmings, Science 275:628-630 (1997); Hemmings. Science 276:534 (1997); Downward, Science 279:673-674 (1998); Alessi et al., EMBO J. 15:6541-6551 (1996)). Western blotting of the phosphorylated Ser473 residue on Akt (phospho-Akt Ser473) is widely used to assess the level of activation of the PI3K/Akt axis.
All buffers and solutions used for the phosphor-Akt Ser473 assay were from Meso Scale Discovery. Tris Lysis Buffer consisted of 150 mM NaCl, 20 mM Tris, pH 7.5, 1 mM EDTA, 1 mM EGTA and 1% Triton-X-100. Complete Tris Lysis Buffer was prepared prior to use by addition of protease inhibitor, phosphatase inhibitors and PMSF. The 10x Tris Wash Buffer consisted of 500 mM Tris, pH 7.5, 1.5 M NaCl and 0.2% Tween-20. Blocker A was made up of bovine serum albumin in Tris Wash Buffer. Read Buffer T was used according to manufacturer's instructions. The Whole Cell Lysate Kits used were phospho-Akt Ser473 (K11100D. Lot K0011749) and total ERK½ (K11107D, Lot K0011698) as a loading control.
Protein assay: protein concentration was determined using the BCA (bicinchoninic acid) Protein Assay kit according to the manufacturer's instructions, Briefly, duplicate 10 μl samples of bovine serum albumin (BSA) standards, blank and lysates were incubated in a 96-well plate with 0.2 ml working reagent for 30 min at 37° C. Plates cooled to room temperature for 5 min and absorbance at 562 nm measured in a multi-mode plate reader. Protein concentrations were calculated using FlexStation 3 software (SoftMax Pro version 5.3). Protein concentration of lysates was determined from a standard curve (BSA) using a linear curve fit.
Phosphoprotein assay: protein phosphorylation was determined using the MULTI-SPOT® Assay System (Meso Scale Discovery), providing simultaneous detection of phosphorylated and total proteins. Briefly, capture antibodies against phosphorylated and total protein are patterned on distinct spots in the same well of 96-well plates. Sandwich immunoassay and electrochemiluminescence detection technology are combined to measure intensity of the emitted light from phosphorylated and total protein spots. For analysis of phosphor-Akt Ser473 was performed according to the manufacturer's instructions. The optimal amount of protein was determined at 5 μg lysate per well for ERK½ and 10 μg/well for phospho-Akt Ser473. Plates were blocked with 25 μl/well Blocker A for 1 h at room temperature with gentle agitation. During this time, the lysates were thawed and diluted to the desired protein concentration in complete Tris Lysis Buffer. Plates were washed four times in Tris Wash Buffer and 25 μl lysate per well added. Plates were incubated for 1-3 h at room temperature with agitation according to the manufacturer's recommendations. Plates were washed four times with Tris Wash Buffer, followed by addition of 25 μl/well of the respective detection antibody and incubation for 1 h at room temperature, with agitation. After a final four washes with Tris Wash Buffer 150 μl/well, Read Buffer T was added, and plates read on a SECTOR Imager 6000 plate reader.
The mean background signal from each plate was subtracted from averaged raw data. The amount of total protein phosphorylaled was expressed as % phosphoprotein according to the manufacturer's (Meso Scale Discovery) Instructions.
Levels of phospho-Akt Ser473 were determined in IgE sensitized and antigen stimulated cells after treatment without (positive control) or with 1, 5 and 25 μM test compound and normalized to levels of total Akt.

[3] = system: RBL-2H3 cells; assay: Inhibition of mast cell degranulation (β-hexosaminidase release); type: cell-based, rat; details: RBL-2H3 cells sensitized with anti-DNP IgE, triggered with DNP-HSA, 1 h preincubation
Source text: Mast cells are key effector cells involved in allergic and inflammatory diseases, and the Rat Basophilic Leukemia clone 2H3 (RBL-2H3) cell line is a commonly used model of allergen dependent immune modulator release (degranulation) in mast cells. On their surface, they express the high affinity receptor for IgE (FcεRI). Upon binding of antigen-specific IgE to the receptor, cells become sensitized to the IgE specific antigen (allergen). When IgE-sensitized cells then encounter multivalent antigen, the antigen clusters IgE-FcεRI complexes and initiates a signal transduction cascade that leads to degranulation, that is, the release of inflammatory mediators, such as cytokines, eicosanoids, histamine and enzymes. The assay can be used as a screening method to identify immune-modulating compounds, in particular compounds useful in the medical management of allergic and inflammatory diseases and asthma, β-hexosaminidase was previously shown to be released with the same kinetics as histamine (Schwartz et al., J Immunology; 123:1445-1450 (1979)), thus offering a simple means to monitor degranulation. The RBL-2H3 cell line has been successfully used to identify compounds with anti-allergic activity (Choo et al. Planta Med., 69:518-522 (2003)).
Cell Culture: RBL-2H3 cells obtained from the German Collection of Microorganisms and Cell Cultures (ACC312) (Braunschweig, Germany) were maintained in 70% Minimum Essential Medium with Earle's Salts, 20% RPMI 1640 Medium, 10% FBS and 2 mM l-glutamine in 95% air/5% CO2 at 37° C. and routinely checked for mycoplasma contamination. Cells were passaged every 3-4 days; after washing cells once with 35 ml PBS cells were incubated 8 min with 5 ml 0.05% Trypsin-EDTA solution at 37° C. Cells were removed from the incubator, 15 ml culture medium was added and cells were resuspended by repeated pipetting.
Cell seeding: cells were harvested with Trypsin-EDTA as described and 50-100 μl cell suspension seeded Into Costar CellBind 24 well cluster plates (no. 3337). Plates were kept for 30 min at RT under the sterile hood before being transferred to the incubator. Cells were used within one or two days after seeding.
For sensitization, cells for immediate use were sensitized 6-12 h after plating; cells to be used the following day were sensitized 26-38 h after plating. Culture plates were removed from the incubator and checked for cell growth and contamination. The medium was discarded and cells were sensitized with anti-DNP IgE (0.4 μg/ml) in 0.4 ml culture medium overnight. Following overnight sensitization, cells were washed with 0.8 ml pre-warmed TyB and 0.38 ml test compound or vehicle control (supplemented or not with 1% FBS) were added to duplicate wells. Samples were adjusted to contain 1% vehicle for test compounds dissolved in organic solvents. Cells were incubated for 1 h at 37° C. At the end of the incubation period, cells were routinely stimulated with 20 μl DNP-HSA (2 μg/ml; final concentration 0.1 μg/ml) diluted in TyB and cells were incubated for 15 min at 37° C. Alternatively, cells were stimulated with 20 μl […] (final concentration 0.25 μM) or 20 nM […] (final concentration 0.25 μM), both in the absence or presence of 20 nM PMA (final concentration).
Plates were removed from the incubator and immediately centrifuged at 4° C. for 5 min at 250×g and transferred to an ice bath. Aliquots of supernatants, 25 μl, were transferred to 96-well plates. Remaining supernatant was aspirated from control wells and cells were lysed in […] lysis buffer for 5 min at RT on an orbital shaker at 450 rpm under non-sterile conditions. After lysis, 25 μl aliquots of lysates were transferred to 96-well plates.
MUG substrate solution, 100 μl, were added to supernatant and lysate samples and plates were incubated 30 min at 37° C. The reaction was terminated by addition of 150 μl stop solution. Fluorescence was measured at 365 nm excitation and 440 nm emission wavelengths. […]

[4] = system: BALB/cJW mice; assay: Delayed-type hypersensitivity (DTH) reaction, mouse ear swelling; type: in vivo; details: oral; 1a 100 mg/kg (loading dose, then maintenance doses), dexamethasone 1.0 mg/kg once daily; 24 h after ovalbumin challenge
Experimental: The anti-inflammatory and anti-allergic effects of compound 1a was assessed in a mouse model of skin delayed-type hypersensitivity (DTH) reactions and compared to a vehicle control and to the reference drug dexamethasone. DTH reactions are antigen-specific cell-mediated immune responses, driven primarily by T helper type 1 (Th1) cells, similar to the tuberculin immunization response. The immune reaction induced by an ovalbumin challenge to animals previously sensitized with ovalbumin in Complete Freund's Adjuvant, is characterized by swelling (edema) at the site of challenge, e.g. the mouse ear. Dexamethasone, an anti-inflammatory steroid, reduces cell-mediated immune responses and was employed to validate the responsiveness of the assay to pharmacological treatment.
Female BALB/cJW mice were bred at the University of Lodz, Lodz, Poland and housed in groups of 8 in makrolon cages with a 12 h light-dark cycle. Mice were given free access to food (Agropol S. j., Motycz, Poland) and water.
Group size was n=8 mice unless otherwise stated. Test compound was freshly prepared before administration.
Sensitization: The protein antigen, ovalbumin, was reconstituted in PBS at 4 mg/ml. […] The emulsion was tested by putting a drop of emulsion onto PBS; if the emulsion remained as a light droplet on the PBS, the emulsion was deemed ready. […]
Challenge: On the sixth day after sensitization, DTH was elicited by challenging animals subcutaneously (gauge 30 needle, B. Braun Melsungen, Melsungen, Germany) in the left ears with 10 μL of a 1% suspension of heat-aggregated ovalbumin (HOVA) (100 μg ovalbumin per mouse). […] Ear thickness was measured with a precise spring-loaded caliper (Art. No, 7309, Mltutoyo, Kawasaki, Japan) before challenge, and 24 h after challenge. […]
To account for individual variability, the increase in right ear thickness, before and 24 h after administration of PBS, was subtracted from the HOVA-induced increase in left ear thickness. The increase in ear thickness was calculated by the difference between ear thickness before and 24 h after antigen challenge. […]

[5] = Body weight and toxic side-effects in the DTH study; type: in vivo, mice; details: oral 1 mg/kg once daily
Experimental: Three hours after the last dose, the antigen challenge was performed on the ears as described above. Dexamethasone was given at 1 mg/kg orally by gavage 3 h before sensitization and once daily with the final dose given 3 h prior to antigen challenge (a total of 7 administrations). All administrations were given in a volume of 10 mL/kg.
Such high dosing (overdose) is, however, not suitable for treatment of humans due to severe side effects of the corticosteroid and was only used to validate the responsiveness of the model.

CCCCCCCCCCCCCC[N+](C)(C)CCCP(=O)([O-])O [Compound 1c, 3-N,N-Dimethylmyristylammoniopropylphosphonic Acid]
MTC (maximum tolerated concentration) ([1]; highest concentration not causing cytotoxicity, LDH release): 200 µM | SI (safety index, ratio MTC/IC50) ([1]; ratio between maximum tolerated concentration and IC50): 71.4 | Level of phospho-Akt Ser473 ([2]; 1 μM): 83.2 ± 17.3 % positive control | Level of phospho-Akt Ser473 ([2]; 5 μM): 11.7 ± 7.7 % positive control | Level of phospho-Akt Ser473 ([2]; 25 μM): 2.2 ± 1.4 % positive control | IC50 [3]: 2800 nM

C[C@@H]1C[C@H]2[C@@H]3CCC4=CC(=O)C=C[C@]4(C)[C@@]3(F)[C@@H](O)C[C@]2(C)[C@@]1(O)C(=O)CO [Dexamethasone, reference compound]
Inhibition of mouse ear swelling (DTH response) [4]: 49% | Loss in body weight [5]: 4.4%

From patent US10829506B2, “Amino- or ammonium-containing sulfonic acid, phosphonic acid and carboxylic acid derivatives and their medical use” (GRI Bio, Inc., priority 2011, dated 2020)
